Data set [1] deals with Purified CYP3A4 (Homo sapiens, UniProt P08684, S18F). Conditions: for Soret peak / Soret trough: human, 20 µM, pH 7.4.
In data set [2] the target is CYP3A4 baculosomes (Homo sapiens, UniProt P08684). Kind of data set: Saturation kinetics of metabolism by CYP3A4. The data set is classed as in vitro ADME.

In the case of `CN(C)c1ccc(NC(=O)c2cc(-c3ccccc3)nc3ccccc23)cc1` [Compound 2], in data set [1], the Binding mode entry is reported as “Type I”, the Soret peak is on record as 385 nm and the Soret trough was 416 nm.

As for `O=C(Nc1ccccc1)c1cc(-c2ccccc2)nc2ccccc12` [Compound 3], in data set [1], the Binding mode entry is “Type I”, the Soret peak is recorded as 392 nm and the Soret trough came to 417 nm.

Consider `Cc1ccc(NC(=O)c2cc(-c3ccccc3)nc3ccccc23)cc1` [Compound 4], for which, in data set [1], the Binding mode entry was “Type I”, the Soret peak is reported as 393 nm and the Soret trough came to 417 nm.

With `COc1ccc(NC(=O)c2cc(-c3ccncc3)nc3ccccc23)cc1` [Compound 5], in data set [1], the Binding mode entry is reported as “Type II”, the Soret peak amounted to 427 nm and the Soret trough stood at 391 nm.

As to `CN(C)c1ccc(NC(=O)c2cc(-c3ccncc3)nc3ccccc23)cc1` [Compound 6], the “kcat smaller than type I binding compound 2” value in data set [2] (compared with compound 2 of series 1) is “more than 2 fold”. In data set [2] (compared with compound 10 of series 3), the “kcat larger than type I binding compound 10” value came out at 1.2 times. Moreover, in data set [1], the Binding mode result is “Type II ^b”, the Soret peak was found to be 427 nm and the Soret trough is 392 nm.

On to `O=C(Nc1ccccc1)c1cc(-c2ccncc2)nc2ccccc12` [Compound 7], for which the “kcat higher than type I binding compounds 3 and 11” value in data set [2] (compared with compounds 3 and 11) is “about 1.5 times”. In data set [1], the Binding mode entry is on record as “Type II”, the Soret peak was 427 nm and the Soret trough is 394 nm.

In the case of `Cc1ccc(NC(=O)c2cc(-c3ccncc3)nc3ccccc23)cc1` [Compound 8], in data set [2] (type II binding compounds, relative to aromatic hydroxylation in ring A), the “rate of benzylic hydroxylation compared to O-demethylation of compound 5” value is listed as “about three fold faster”. In data set [1], the Binding mode result is reported as “Type II”, the Soret peak is reported as 428 nm and the Soret trough is on record as 392 nm.

Take `COc1ccc(NC(=O)c2cc(-c3ccccn3)nc3ccccc23)cc1` [Compound 9]: in data set [1], the Binding mode entry is recorded as “Type I”, the Soret peak came to 388 nm and the Soret trough was 417 nm.

For `CN(C)c1ccc(NC(=O)c2cc(-c3ccccn3)nc3ccccc23)cc1` [Compound 10], in data set [1], the Binding mode entry was “Type I”, the Soret peak was determined as 386 nm and the Soret trough is 416 nm.

With `O=C(Nc1ccccc1)c1cc(-c2ccccn2)nc2ccccc12` [Compound 11], in data set [1], the Binding mode result was “Type I”, the Soret peak is 389 nm and the Soret trough is recorded as 418 nm.

As for `Cc1ccc(NC(=O)c2cc(-c3ccccn3)nc3ccccc23)cc1` [Compound 12], in data set [1], the Binding mode result is “Type I”, the Soret peak came to 391 nm and the Soret trough is reported as 416 nm.

Regarding `COc1ccc(NC(=O)c2cc(-c3cnccn3)nc3ccccc23)cc1` [Compound 13], in data set [1], the Binding mode entry is on record as “Type II”, the Soret peak came out at 423 nm and the Soret trough turned out to be 396 nm.

Regarding `CN(C)c1ccc(NC(=O)c2cc(-c3cnccn3)nc3ccccc23)cc1` [Compound 14], in data set [1], the Binding mode result is reported as “Type II”, the Soret peak came out at 425 nm and the Soret trough came to 393 nm.

On to `O=C(Nc1ccccc1)c1cc(-c2cnccn2)nc2ccccc12` [Compound 15], for which, in data set [1], the Binding mode entry is “Type II”, the Soret peak was 427 nm and the Soret trough stood at 397 nm.

Regarding `Cc1ccc(NC(=O)c2cc(-c3cnccn3)nc3ccccc23)cc1` [Compound 16], in data set [1], the Binding mode entry is “Type II”, the Soret peak amounted to 422 nm and the Soret trough worked out at 391 nm.

With `COc1ccc(NC(=O)c2cc(-c3ccncn3)nc3ccccc23)cc1` [Compound 17], in data set [1], the Binding mode entry is recorded as “Type II”, the Soret peak came out at 425 nm and the Soret trough is 391 nm.

In the case of `CN(C)c1ccc(NC(=O)c2cc(-c3ccncn3)nc3ccccc23)cc1` [Compound 18], in data set [1], the Binding mode result is listed as “Type II”, the Soret peak came out at 422 nm and the Soret trough is 392 nm.

On to `O=C(Nc1ccccc1)c1cc(-c2ccncn2)nc2ccccc12` [Compound 19], for which, in data set [1], the Binding mode result was “Type II”, the Soret peak worked out at 424 nm and the Soret trough worked out at 390 nm.

With `Cc1ccc(NC(=O)c2cc(-c3ccncn3)nc3ccccc23)cc1` [Compound 20], in data set [1], the Binding mode result is reported as “Type II”, the Soret peak was 425 nm and the Soret trough was determined as 390 nm.

Values taken from article PMC3257383 (Journal of Medicinal Chemistry, 2011).
